# From US20260355196A1, “INHIBITORS AND DEGRADERS OF PIP4K PROTEIN” (Larkspur Biosciences, Inc., priority 2023, published 2026)
# Molecular target: T1, PIP4K2C (Homo sapiens, UniProt Q8TBX8)
# T1 sequence (Q8TBX8 1-421): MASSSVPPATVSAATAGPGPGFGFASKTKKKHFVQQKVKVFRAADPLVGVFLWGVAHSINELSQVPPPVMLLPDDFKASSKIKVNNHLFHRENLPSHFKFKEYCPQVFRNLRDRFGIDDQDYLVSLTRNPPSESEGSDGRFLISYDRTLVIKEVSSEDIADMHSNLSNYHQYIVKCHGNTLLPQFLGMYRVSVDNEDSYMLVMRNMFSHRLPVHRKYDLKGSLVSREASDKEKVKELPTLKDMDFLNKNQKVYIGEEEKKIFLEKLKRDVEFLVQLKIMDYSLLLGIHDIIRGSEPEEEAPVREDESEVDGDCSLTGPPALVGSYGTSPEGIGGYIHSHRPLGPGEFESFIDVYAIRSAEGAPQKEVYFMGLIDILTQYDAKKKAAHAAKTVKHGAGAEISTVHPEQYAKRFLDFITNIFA
# Assay: HiBiT PIP4K2C degradation assay in MOLT-4 cells (endogenous PIP4K2C C-terminally tagged with HiBiT)
# Format: cell-based
# Design: untagged in primary human PBMCs and monocyte-derived dendritic cells
# Details: 6 hours of incubation time, rather than 24 hours; MOLT-4, top concentration 10 micromolar; read-out: HiBIT-degradation MOLT4 PIP4k2C DC50 (6 hours, marked *)
# How it was run: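 DC50 derived by Hill fit of luminescence from Nano-Glo HiBiT lytic detection. Cells were HiBiT knock-in MOLT-4 (C-terminal tag on endogenous PIP4K2C), exposed 6 h or 24 h at 37 C to compound, top concentration 10 micromolar, 3-fold steps, 10 points, duplicates.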
row,Compound,DC50 [nM]
1,"O=C1CCC(Nc2ccc(C3CCN(C4CCN(C(=O)O[C@H]5CC[C@H](Nc6ncc(F)c(-c7cccc(N8CCCCC8=O)c7)n6)CC5)CC4)CC3)c(F)c2)C(=O)N1 (stereo partly drawn) [Compound 678, trans-4-((5-fluoro-4-(3-(2-oxopiperidin-1-yl)phenyl)pyrimidin-2-yl)amino)cyclohexyl 4-(4-((2,6-dioxopiperidin-3-yl)amino)-2-fluorophenyl)-[1,4′-bipiperidine]-1′-carboxylate]",< 500
2,"Cn1nc(C2CCC(=O)NC2=O)c2ccc(C3CCN(C[C@H]4CC[C@H](OC(=O)N5CCC(Nc6ncc(F)c(-c7cccc(-n8ccccc8=O)c7)n6)CC5)CC4)CC3)cc21 (stereo partly drawn) [Compound 679, trans-4-((4-(3-(2,6-dioxopiperidin-3-yl)-1-methyl-1H-indazol-6-yl)piperidin-1-yl)methyl)cyclohexyl 4-((5-fluoro-4-(3-(2-oxopyridin-1 (2H)-yl)phenyl)pyrimidin-2-yl)amino)piperidine-1-carboxylate]",< 500
3,"O=C1CCC(Nc2ccc(C3CCN(CC4(O)CCC(C(=O)N5CCC(Nc6ncc(F)c(-c7cccc(-n8ccccc8=O)c7)n6)CC5)CC4)CC3)c(F)c2)C(=O)N1 (stereo not drawn) [Compound 680, trans-3-((3-fluoro-4-(1-((4-(4-((5-fluoro-4-(3-(2-oxopyridin-1 (2H)-yl)phenyl)pyrimidin-2-yl)amino)piperidine-1-carbonyl)-1-hydroxycyclohexyl)methyl)piperidin-4-yl)phenyl)amino)piperidine-2,6-dione]",< 500
4,"O=C1CCC(Nc2ccc(N3CCN(C4CC5(C4)CN(C(=O)O[C@H]4CC[C@H](Nc6ncc(F)c(-c7cccc(-n8ccccc8=O)c7)n6)CC4)C5)CC3)c(F)c2)C(=O)N1 (stereo partly drawn) [Compound 681, trans-4-((5-fluoro-4-(3-(2-oxopyridin-1 (2H)-yl)phenyl)pyrimidin-2-yl)amino)cyclohexyl 6-(4-(4-((2,6-dioxopiperidin-3-yl)amino)-2-fluorophenyl)piperazin-1-yl)-2-azaspiro[3.3]heptane-2-carboxylate]",< 500
5,"O=C1CCC(Nc2ccc(C3CCN(CC4CCC(C(=O)N5CCC(Nc6ncc(F)c(-c7cccc(N8CCCCC8)c7)n6)CC5)CC4)CC3)c(F)c2)C(=O)N1 (stereo not drawn) [Compound 682, trans-3-((3-fluoro-4-(1-((4-(4-((5-fluoro-4-(3-(piperidin-1-yl)phenyl)pyrimidin-2-yl)amino)piperidine-1-carbonyl)cyclohexyl)methyl)piperidin-4-yl)phenyl)amino)piperidine-2,6-dione]",< 500
6,"O=C1CCC(Nc2ccc(C3CCN(C[C@H]4CC[C@H](C(=O)N5CCC(Nc6ncc(F)c(-c7cccc(N8CCOCC8=O)c7)n6)CC5)CC4)CC3)c(F)c2)C(=O)N1 (stereo partly drawn) [Compound 683, 3-((3-fluoro-4-(1-(((trans)-4-(4-((5-fluoro-4-(3-(3-oxomorpholino)phenyl)pyrimidin-2-yl)amino)piperidine-1-carbonyl)cyclohexyl)methyl)piperidin-4-yl)phenyl)amino)piperidine-2,6-dione]",> 5000
7,"O=C1CCC(Nc2ccc(C3CCN(C[C@H]4CC[C@H](C(=O)N5CCC(Nc6ncc(F)c(-c7cccc(N8CCCOC8=O)c7)n6)CC5)CC4)CC3)c(F)c2)C(=O)N1 (stereo partly drawn) [Compound 684, trans-3-((3-fluoro-4-(1-((4-(4-((5-fluoro-4-(3-(2-oxo-1,3-oxazinan-3-yl)phenyl)pyrimidin-2-yl)amino)piperidine-1-carbonyl)cyclohexyl)methyl)piperidin-4-yl)phenyl)amino)piperidine-2,6-dione]",< 500
8,"O=C1CCC(Nc2ccc(C3CCN(C[C@H]4CC[C@H](C(=O)N5CCC(Nc6ncc(F)c(-c7cccc(N8CCCCC8=O)c7)n6)CC5)CC4)CC3)c(F)c2)C(=O)N1 (stereo partly drawn) [Compound 685, 3-((3-fluoro-4-(1-((trans-4-(4-((5-fluoro-4-(3-(2-oxopiperidin-1-yl)phenyl)pyrimidin-2-yl)amino)piperidine-1-carbonyl)cyclohexyl)methyl)piperidin-4-yl)phenyl)amino)piperidine-2,6-dione]",< 500
9,"O=C1CCC(Nc2ccc(N3CCN(CC4CCN(C(=O)[C@H]5CC[C@H](Nc6ncc(F)c(-c7cccc(N8CCOCC8)c7)n6)CC5)CC4)CC3)c(F)c2)C(=O)N1 (stereo partly drawn) [Compound 686, trans-3-((3-fluoro-4-(4-((1-(4-((5-fluoro-4-(3-morpholinophenyl)pyrimidin-2-yl)amino)cyclohexane-1-carbonyl)piperidin-4-yl)methyl)piperazin-1-yl)phenyl)amino)piperidine-2,6-dione]",< 500
10,"O=C1CCC(Nc2ccc(N3CCN(C4CCN(C(=O)O[C@H]5CC[C@H](Nc6ncc(F)c(-c7cccc(N8CCCCC8)c7)n6)CC5)CC4)CC3)c(F)c2)C(=O)N1 (stereo partly drawn) [Compound 687, trans-4-((5-fluoro-4-(3-(piperidin-1-yl)phenyl)pyrimidin-2-yl)amino)cyclohexyl 4-(4-(4-((2,6-dioxopiperidin-3-yl)amino)-2-fluorophenyl)piperazin-1-yl)piperidine-1-carboxylate]",< 500
11,"O=C1CCC(Nc2ccc(N3CCN(C4CCN(C(=O)O[C@H]5CC[C@H](Nc6ncc(F)c(-c7cccc(N8CCOCC8=O)c7)n6)CC5)CC4)CC3)c(F)c2)C(=O)N1 (stereo partly drawn) [Compound 688, trans-4-((5-fluoro-4-(3-(3-oxomorpholino)phenyl)pyrimidin-2-yl)amino)cyclohexyl 4-(4-(4-((2,6-dioxopiperidin-3-yl)amino)-2-fluorophenyl)piperazin-1-yl)piperidine-1-carboxylate]",< 500
12,"O=C1CCC(Nc2ccc(C3CCN(C4CCN(C(=O)O[C@H]5CC[C@H](Nc6ncc(F)c(-c7cccc(N8CCCCC8)c7)n6)CC5)CC4)CC3)c(F)c2)C(=O)N1 (stereo partly drawn) [Compound 689, trans-4-((5-fluoro-4-(3-(piperidin-1-yl)phenyl)pyrimidin-2-yl)amino)cyclohexyl 4-(4-((2,6-dioxopiperidin-3-yl)amino)-2-fluorophenyl)-[1,4′-bipiperidine]-1′-carboxylate]",< 500

# Further lines, results first:
row,DC50 [nM],Compound
1,< 500,"O=C1CCC(Nc2ccc(C3CCN(C4CCN(C(=O)O[C@H]5CC[C@H](Nc6ncc(F)c(-c7cccc(N8CCOCC8=O)c7)n6)CC5)CC4)CC3)c(F)c2)C(=O)N1 (stereo partly drawn) [Compound 690, trans-4-((5-fluoro-4-(3-(3-oxomorpholino)phenyl)pyrimidin-2-yl)amino)cyclohexyl 4-(4-((2,6-dioxopiperidin-3-yl)amino)-2-fluorophenyl)-[1,4′-bipiperidine]-1′-carboxylate]"
2,< 500,"O=C1CCC(Nc2ccc(N3CCC(CC4(O)CCN(C(=O)[C@H]5CC[C@H](Nc6ncc(F)c(-c7cccc(-n8ccccc8=O)c7)n6)CC5)CC4)CC3)c(F)c2)C(=O)N1 (stereo partly drawn) [Compound 691, trans-3-((3-fluoro-4-(4-((1-(4-((5-fluoro-4-(3-(2-oxopyridin-1 (2H)-yl)phenyl)pyrimidin-2-yl)amino)cyclohexane-1-carbonyl)-4-hydroxypiperidin-4-yl)methyl)piperidin-1-yl)phenyl)amino)piperidine-2,6-dione]"
3,< 500,"O=C1CCC(Nc2ccc(C3CCN([C@H]4CC[C@H](NC(=O)[C@H]5CC[C@H](Nc6ncc(F)c(-c7cccc(-n8ccccc8=O)c7)n6)CC5)CC4)CC3(F)F)c(F)c2)C(=O)N1 (stereo partly drawn) [Compound 692, trans-N-(trans-4-(4-(4-((2,6-dioxopiperidin-3-yl)amino)-2-fluorophenyl)-3,3-difluoropiperidin-1-yl)cyclohexyl)-4-((5-fluoro-4-(3-(2-oxopyridin-1 (2H)-yl)phenyl)pyrimidin-2-yl)amino)cyclohexane-1-carboxamide]"
4,< 500,"O=C1CCC(Nc2ccc(C3CCN(C[C@H]4CC[C@H](C(=O)N5CCC(Nc6ncc(F)c(-c7cccc(-n8ccccc8=O)c7)n6)CC5)CC4)CC3)c(F)c2)C(=O)N1 (stereo partly drawn) [Compound 693, 3-((3-fluoro-4-(1-(((trans)-4-(4-((5-fluoro-4-(3-(2-oxopyridin-1 (2H)-yl)phenyl)pyrimidin-2-yl)amino)piperidine-1-carbonyl)cyclohexyl)methyl)piperidin-4-yl)phenyl)amino)piperidine-2,6-dione]"
5,< 500,"O=C1CCC(Nc2ccc(C3CCN(C4CCC(C(=O)N[C@H]5CC[C@H](Nc6ncc(F)c(-c7cccc(-n8ccccc8=O)c7)n6)CC5)CC4F)CC3)c(F)c2)C(=O)N1 (stereo partly drawn) [Compound 694, (1R,3S,4R)-4-(4-(4-((2,6-dioxopiperidin-3-yl)amino)-2-fluorophenyl)piperidin-1-yl)-3-fluoro-N-((trans)-4-((5-fluoro-4-(3-(2-oxopyridin-1 (2H)-yl)phenyl)pyrimidin-2-yl)amino)cyclohexyl)cyclohexane-1-carboxamide]"
6,< 500,"O=C1CCC(Nc2ccc(C3CCN(C4CCN(C(=O)O[C@H]5CC[C@H](Nc6ncc(F)c(-c7cccc(-n8ccccc8=O)c7)n6)CC5)CC4F)CC3)c(F)c2)C(=O)N1 (stereo partly drawn) [Compound 695, trans-4-((5-fluoro-4-(3-(2-oxopyridin-1 (2H)-yl)phenyl)pyrimidin-2-yl)amino)cyclohexyl 4-(4-((2,6-dioxopiperidin-3-yl)amino)-2-fluorophenyl)-3′-fluoro-[1,4′-bipiperidine]-1′-carboxylate]"
